Data taken from patent publication US20230108270A1, “STABILIZATION OF COMPOUNDS AS CYCLODEXTRIN COMPLEXES” (University of Pittsburgh - Of the Commonwealth System of …, priority 2020, published 2023).

Assay: Stability of NO2-OA/β-cyclodextrin inclusion complex resuspended in water
Assay type: physicochemical
Experimental: An important consideration when working with nitroalkene fatty acids is their high sensitivity to water or humidity. […] Stability was compared with the total amount added to the aqueous solution.
These stability assays were performed at room temperature and data was similar between the two tested concentrations of 0.31 mg/ml and 1.95 mg/ml. […] A new equilibrium is rapidly achieved and the sample is stable after this initial decay.

For CCCCCCCCC(=CCCCCCCCC(=O)O)[N+](=O)[O-] [NO2-OA, 10-nitro-octadec-9-enoic acid], the “time to complete decomposition of NO2-OA in water” value (NO2-OA added to water without cyclodextrin) was no more than 4 h and the “time to loss of 10-NO2-OA in solution” value (same molar amount of 10-NO2-OA added to water) was no more than 4 hrs.
